Source: patent US20090131354A1, “miR-126 REGULATED GENES AND PATHWAYS AS TARGETS FOR THERAPEUTIC INTERVENTION” (priority 2007, published 2009)

Tested on: A549 cells
Experiment: mRNA array gene expression analysis after transfection
Type: cell-based, human
Settings: A549, 30 nM

Substance: hsa-miR-126 (UCGUACCGUGAGUAAUAAUGC; synthetic pre-miR form, further chemistry not given here) [Synthetic hsa-miR-126 (Pre-miR™-hsa-miR-126, Ambion cat. no. AM17100)]
- Δ log2 LBA1 mRNA: 1.07 log2
- Δ log2 LCN2 mRNA: 1.032 log2
- Δ log2 LOC93349 mRNA: 1.021 log2
- Δ log2 LOC257407 mRNA: 1.211 log2
- Δ log2 LRP12 mRNA: −2.094 log2
- Δ log2 LXN mRNA: 1.017 log2
- Δ log2 M6PRBP1 mRNA: −1.074 log2
- Δ log2 MAP1B mRNA: −0.706 log2
- Δ log2 MAP3K1 mRNA: 1.609 log2
- Δ log2 MAPK6 mRNA: −0.81 log2
- Δ log2 MASK mRNA: −1.4 log2
- Δ log2 MAWBP mRNA: 1.126 log2
- Δ log2 MAZ mRNA: −1.133 log2
- Δ log2 MCL1 mRNA: 1.394 log2
- Δ log2 MET mRNA: −0.9508 log2
- Δ log2 MICAL2 mRNA: −1.182 log2
- Δ log2 MMP7 mRNA: 1.127 log2
- Δ log2 MR1 mRNA: 0.702 log2
- Δ log2 MTUS1 mRNA: 0.7009 log2
- Δ log2 MYBL1 mRNA: −1.008 log2
- Δ log2 NAB1 mRNA: −0.7242 log2
- Δ log2 NCF2 mRNA: −0.8706 log2
- Δ log2 NEK4 mRNA: −1.197 log2
- Δ log2 NF1 mRNA: −1.383 log2
- Δ log2 NF2 mRNA: −0.8288 log2
- Δ log2 NID1 mRNA: 0.8833 log2
- Δ log2 NPTX1 mRNA: −1.204 log2
- Δ log2 NR1H4 mRNA: 1.063 log2
- Δ log2 NR2F1 mRNA: 0.8754 log2
- Δ log2 NR4A2 mRNA: 1.19 log2
- Δ log2 NRIP1 mRNA: 0.7196 log2
- Δ log2 NUCKS mRNA: 2.05 log2
- Δ log2 OLFML3 mRNA: −1.333 log2
- Δ log2 OXTR mRNA: −1.374 log2
- Δ log2 PCAF mRNA: −1.071 log2
- Δ log2 PDCD4 mRNA: 1.094 log2
- Δ log2 PDK4 mRNA: 1.686 log2
- Δ log2 PDXK mRNA: −1.142 log2
- Δ log2 PDZK1IP1 mRNA: 0.8906 log2
- Δ log2 PEX10 mRNA: −0.7177 log2
- Δ log2 PGK1 mRNA: 1.563 log2
- Δ log2 PHACTR2 mRNA: 0.8791 log2
- Δ log2 PHTF2 mRNA: −1.334 log2
- Δ log2 PLA1A mRNA: 1.623 log2
- Δ log2 PLA2G4A mRNA: 0.8899 log2
- Δ log2 PLCB1 mRNA: 1.421 log2
- Δ log2 PLEC1 mRNA: −0.9035 log2
- Δ log2 PLK1 mRNA: −0.7295 log2
- Δ log2 PLOD2 mRNA: −1.204 log2
- Δ log2 PMCH mRNA: 0.9697 log2
- Δ log2 PMM1 mRNA: −1.034 log2
- Δ log2 PPP3CB mRNA: −1.185 log2
- Δ log2 PRKCA mRNA: −1.083 log2
- Δ log2 PRO1843 mRNA: 1.386 log2
- Δ log2 PROS1 mRNA: 1.021 log2
- Δ log2 PSME3 mRNA: −0.8427 log2
- Δ log2 PTENP1 mRNA: 0.8904 log2
- Δ log2 PTK9 mRNA: 1.028 log2
- Δ log2 PTP4A1 mRNA: 0.7259 log2
- Δ log2 PXN mRNA: −0.8029 log2
- Δ log2 Pfs2 mRNA: −0.7674 log2
- Δ log2 QDPR mRNA: −1.048 log2
- Δ log2 QKI mRNA: 0.7094 log2
- Δ log2 RAB2 mRNA: 1.459 log2
- Δ log2 RAB11FIP2 mRNA: −0.8417 log2
- Δ log2 RAB40B mRNA: 1.166 log2
- Δ log2 RABL2B /// RABL2A mRNA: −0.8805 log2
- Δ log2 RAFTLIN mRNA: 0.9753 log2
- Δ log2 RARRES1 mRNA: 1.523 log2
- Δ log2 RARRES3 mRNA: 1.399 log2
- Δ log2 RASSF2 mRNA: −1.355 log2
- Δ log2 RBP4 mRNA: 1.037 log2
- Δ log2 RGC32 mRNA: 1.701 log2
- Δ log2 RHEB mRNA: 1.113 log2
- Δ log2 RHOB mRNA: −1.015 log2
- Δ log2 RHOBTB1 mRNA: 1.197 log2
- Δ log2 RIG mRNA: 0.9993 log2
- Δ log2 RIP mRNA: 1.299 log2
- Δ log2 RNASE4 mRNA: 1.351 log2
- Δ log2 RNF14 mRNA: −1.293 log2
- Δ log2 RPL14 mRNA: 0.7937 log2
- Δ log2 RPL38 mRNA: 1.084 log2
- Δ log2 RPS11 mRNA: 1.097 log2
- Δ log2 RRAGD mRNA: 1.193 log2
- Δ log2 SCARB2 mRNA: 0.9635 log2
- Δ log2 SCML1 mRNA: 0.9483 log2
- Δ log2 SDC1 mRNA: −0.9726 log2
- Δ log2 SDC4 mRNA: −1.316 log2
- Δ log2 SEC24A mRNA: 0.7724 log2
- Δ log2 SELENBP1 mRNA: 1.193 log2
- Δ log2 SEPP1 mRNA: 2.014 log2
- Δ log2 SEPT9 mRNA: −0.7282 log2
- Δ log2 SERPINA6 mRNA: 1.032 log2
- Δ log2 SERPINE1 mRNA: −1.338 log2
- Δ log2 SF3B4 mRNA: −1.044 log2
- Δ log2 SGPL1 mRNA: −1.59 log2
- Δ log2 SGPP1 mRNA: −1.773 log2
- Δ log2 SH3YL1 mRNA: 1.026 log2
- Δ log2 SLC2A3 mRNA: 0.7467 log2
- Δ log2 SLC3A2 mRNA: −1.221 log2
- Δ log2 SLC4A4 mRNA: −1.661 log2
- Δ log2 SLC4A7 mRNA: −0.9064 log2
- Δ log2 SLC7A5 mRNA: −1.958 log2
- Δ log2 SLC7A11 mRNA: −0.721 log2
- Δ log2 SLC26A2 mRNA: −1.615 log2
- Δ log2 SLC35D1 mRNA: −1.443 log2
- Δ log2 SLC39A6 mRNA: −2.468 log2
- Δ log2 SMARCA2 mRNA: 0.8119 log2
- Δ log2 SMTN mRNA: −1.071 log2
- Δ log2 SNRPD1 mRNA: −0.7027 log2
- Δ log2 SOCS2 mRNA: −0.7193 log2
- Δ log2 SORBS3 mRNA: −1.106 log2
- Δ log2 SPFH2 mRNA: 0.9346 log2
- Δ log2 SRD5A1 mRNA: −0.9713 log2
- Δ log2 STC1 mRNA: 0.8696 log2
- Δ log2 STK24 mRNA: −1.021 log2
- Δ log2 STX3A mRNA: 0.7983 log2
- Δ log2 SUMO2 mRNA: 0.9996 log2
- Δ log2 TAGLN mRNA: −0.9221 log2
- Δ log2 TARDBP mRNA: −1.05 log2
- Δ log2 TFG mRNA: 0.9981 log2
- Δ log2 TFPI mRNA: 1.003 log2
- Δ log2 TGFBR2 mRNA: 1.068 log2
- Δ log2 TGFBR3 mRNA: 1.082 log2
- Δ log2 THBS1 mRNA: −0.9922 log2
- Δ log2 TJP2 mRNA: 0.8301 log2
- Δ log2 TLR3 mRNA: 1.096 log2
- Δ log2 TM4SF20 mRNA: 0.9319 log2
- Δ log2 TNFAIP6 mRNA: −1.542 log2
- Δ log2 TNFRSFI2A mRNA: −1.07 log2
- Δ log2 TNFSF10 mRNA: 1.066 log2
- Δ log2 TNRC9 mRNA: 0.8141 log2
- Δ log2 TNS1 mRNA: 1.235 log2
- Δ log2 TP73L mRNA: 0.7602 log2
- Δ log2 TRA1 mRNA: 1.982 log2
- Δ log2 TRIM14 mRNA: −1.157 log2
- Δ log2 TRIM22 mRNA: 1.379 log2
- Δ log2 TSC mRNA: 1.372 log2
- Δ log2 TSPAN7 mRNA: 0.8049 log2
- Δ log2 TSPAN8 mRNA: 1.266 log2
- Δ log2 TTC3 mRNA: 0.7079 log2
- Δ log2 TUBB2 /// TUBB-PARALOG mRNA: −0.904 log2
- Δ log2 TXN mRNA: 1.543 log2
- Δ log2 TncRNA: 1.613 log2
- Δ log2 UAP1 mRNA: −1.613 log2
- Δ log2 UBE2L6 mRNA: 0.9119 log2
- Δ log2 UPK1B mRNA: −1.042 log2
- Δ log2 VDAC1 mRNA: −1.181 log2
- Δ log2 VDAC3 mRNA: 1.063 log2
- Δ log2 VIL2 mRNA: 0.7604 log2
- Δ log2 WDR1 mRNA: −0.8373 log2
- Δ log2 WDR41 mRNA: −1.49 log2
- Δ log2 WEE1 mRNA: 0.8892 log2
- Δ log2 WNT7B mRNA: −1.114 log2
- Δ log2 XM_371853 (gene symbol —) mRNA: 0.9326 log2
- Δ log2 XTP2 mRNA: 0.9083 log2
- Δ log2 YKT6 mRNA: −1.176 log2
- Δ log2 YOD1 mRNA: 0.869 log2
- Δ log2 YTHDF3 mRNA: −0.9397 log2
- Δ log2 ZNF467 mRNA: 1.211 log2
